Results published in the NIST ThermoML archive (doi:10.1021/je200565u).
± gives the expanded uncertainty stated by the source. Values belong to the compound of their own block, whether it stands above or below them.

Conditions: Liquid, Closed cell (Static) method

SMILES: CCCCOCCO [2-butoxyethan-1-ol]
vapor or sublimation pressure (441.3 K): 93.9 ± 0.8 kPa
vapor or sublimation pressure (441.5 K): 93.6 ± 0.8 kPa
vapor or sublimation pressure (442.1 K): 94.1 ± 0.8 kPa

SMILES: CCCCOCCOC(C)=O [2-butoxyethyl acetate]
vapor or sublimation pressure (463 K): 93.7 ± 0.8 kPa
vapor or sublimation pressure (463.3 K): 93.6 ± 0.8 kPa
vapor or sublimation pressure (464.2 K): 93.9 ± 0.8 kPa

SMILES: CCOCCOC(C)=O [2-ethoxyethyl ethanoate]
vapor or sublimation pressure (427.8 K): 93.3 ± 0.8 kPa
vapor or sublimation pressure (428.3 K): 93.7 ± 0.8 kPa
vapor or sublimation pressure (428.6 K): 93.3 ± 0.8 kPa

vapor or sublimation pressure (406.2 K): 93.3 ± 0.8 kPa
vapor or sublimation pressure (406.9 K): 93.3 ± 0.8 kPa
vapor or sublimation pressure (407.8 K): 93.6 ± 0.8 kPa
SMILES: CCOCCO [2-ethoxyethan-1-ol]
